Test results published in ChEMBL document CHEMBL1201862, “PubChem BioAssay data set” (2004).
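Cells were grown in 96-well plates and exposed to each compound for 48 hours at five concentrations; endpoints were interpolated linearly between bracketing concentrations, or set to the highest concentration if not reached. The concentration for 50% growth inhibition is given as GI50.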 Calls of active or inactive are those of the source. No stated cut-off is given here; in the data, active = GI50 up to about 1.1 µM and inactive = higher.

Legend:
Experiment in all cases: inhibition of tumour cell growth, NCI panel, 48 h
HT-29 = system: HT-29
SF-268 = system: SF-268
MDA-N = system: MDA-N
Hs-578T = system: Hs-578T
NCI-H226 = system: NCI-H226
MDA-MB-435 = system: MDA-MB-435
NCI-H460 = system: NCI-H460
M14 = system: M14
HL-60 = system: HL-60
A498 = system: A498
TK-10 = system: TK-10
SNB-19 = system: SNB-19
NCI-H522 = system: NCI-H522
UACC-62 = system: UACC-62
U-251 = system: U-251
UO-31 = system: UO-31
A549 = system: A549
SNB-75 = system: SNB-75
SK-MEL-5 = system: SK-MEL-5
MDA-MB-231 = system: MDA-MB-231
LOX IMVI = system: LOX IMVI
DU-145 = system: DU-145
ACHN = system: ACHN
HCT-116 = system: HCT-116
SN12C = system: SN12C
MOLT-4 = system: MOLT-4
KM12 = system: KM12
EKVX = system: EKVX
OVCAR-4 = system: OVCAR-4
786-0 = system: 786-0
CCRF-CEM = system: CCRF-CEM
BT-549 = system: BT-549
OVCAR-8 = system: OVCAR-8
SK-MEL-2 = system: SK-MEL-2
SK-MEL-28 = system: SK-MEL-28
COLO 205 = system: COLO 205
CAKI-1 = system: CAKI-1
IGROV-1 = system: IGROV-1
OVCAR-3 = system: OVCAR-3
PC-3 = system: PC-3
SW-620 = system: SW-620
T47D = system: T47D
NCI-H23 = system: NCI-H23
HOP-92 = system: HOP-92
NCI/ADR-RES = system: NCI/ADR-RES
MCF7 = system: MCF7
SF-295 = system: SF-295
SF-539 = system: SF-539
OVCAR-5 = system: OVCAR-5
UACC-257 = system: UACC-257
HCT-15 = system: HCT-15
SK-OV-3 = system: SK-OV-3
HOP-62 = system: HOP-62
RXF 393 = system: RXF 393
HCC 2998 = system: HCC 2998
RPMI-8226 = system: RPMI-8226
K562 = system: K562
Malme-3M = system: Malme-3M

Measured: GI50

CCOC(=O)c1c[nH]c2c(Sc3ccccc3)nccc2c1=O
> 100 µM: HCT-15
inactive: HT-29 97.5 µM | SF-268 > 100 µM | MDA-N > 100 µM | Hs-578T > 100 µM | NCI-H226 95.3 µM | MDA-MB-435 39.6 µM | NCI-H460 > 100 µM | M14 > 100 µM | HL-60 27.5 µM | A498 > 100 µM | TK-10 > 100 µM | SNB-19 > 100 µM | NCI-H522 19.7 µM | UACC-62 36.7 µM | U-251 44.4 µM | UO-31 13.2 µM | A549 87.5 µM | SNB-75 71.1 µM | SK-MEL-5 92.7 µM | MDA-MB-231 53.1 µM | LOX IMVI 31 µM | DU-145 90.8 µM | ACHN > 100 µM | HCT-116 73.6 µM | SN12C > 100 µM | MOLT-4 17.8 µM | KM12 44.6 µM | EKVX > 100 µM | OVCAR-4 > 100 µM | 786-0 > 100 µM | CCRF-CEM 22.3 µM | BT-549 30.7 µM | OVCAR-8 > 100 µM | SK-MEL-2 > 100 µM | SK-MEL-28 > 100 µM | COLO 205 > 100 µM | CAKI-1 41.3 µM | IGROV-1 21.7 µM | OVCAR-3 > 100 µM | PC-3 > 100 µM | SW-620 > 100 µM | T47D 18.3 µM | NCI-H23 32.4 µM | HOP-92 46.9 µM | NCI/ADR-RES > 100 µM | MCF7 71.4 µM | SF-295 > 100 µM | SF-539 77.8 µM | OVCAR-5 > 100 µM | UACC-257 > 100 µM | SK-OV-3 > 100 µM | HOP-62 > 100 µM

NC(Cc1ccccc1)(C(=O)O)C(=O)O
inactive: HT-29 > 100 µM | SF-268 > 100 µM | MDA-N > 100 µM | Hs-578T > 100 µM | NCI-H226 > 100 µM | MDA-MB-435 > 100 µM | NCI-H460 > 100 µM | M14 > 100 µM | A498 > 100 µM | TK-10 > 100 µM | SNB-19 > 100 µM | NCI-H522 > 100 µM | UACC-62 > 100 µM | U-251 > 100 µM | RXF 393 > 100 µM | UO-31 > 100 µM | A549 > 100 µM | SK-MEL-5 > 100 µM | HCC 2998 > 100 µM | MDA-MB-231 > 100 µM | LOX IMVI > 100 µM | DU-145 > 100 µM | ACHN > 100 µM | HCT-116 > 100 µM | SN12C > 100 µM | MOLT-4 > 100 µM | KM12 > 100 µM | EKVX > 100 µM | OVCAR-4 > 100 µM | RPMI-8226 > 100 µM | 786-0 > 100 µM | K562 > 100 µM | CCRF-CEM > 100 µM | BT-549 > 100 µM | OVCAR-8 > 100 µM | SK-MEL-2 > 100 µM | SK-MEL-28 > 100 µM | COLO 205 > 100 µM | CAKI-1 14.8 µM | IGROV-1 > 100 µM | OVCAR-3 > 100 µM | Malme-3M > 100 µM | PC-3 > 100 µM | SW-620 > 100 µM | T47D > 100 µM | NCI-H23 > 100 µM | HOP-92 > 100 µM | NCI/ADR-RES > 100 µM | MCF7 > 100 µM | SF-295 > 100 µM | SF-539 > 100 µM | OVCAR-5 > 100 µM | UACC-257 > 100 µM | SK-OV-3 > 100 µM | HOP-62 > 100 µM
> 100 µM: HCT-15
